Reference: US6346549B1, “Treatment of pharmacology of drug misuse and other addictive disorders” (Knoll Pharmaceutical Company, priority 1999, dated 2002)

Key:
[1] = target: T1, [3H]Noradenaline reuptake in rat brain tissue (Rattus norvegicus); assay: in vitro [3H]noradrenaline reuptake inhibition in rat brain tissue; type: biochemical; conditions: monoamine reuptake inhibition, means of ≧3 separate determinations
T1 construct: in rat brain tissue; from tissue; host or cells: rat brain tissue

[2] = target: [3H]Dopamine reuptake in rat brain tissue (Rattus norvegicus, UniProt P23977); assay: biochemical
Chain of [3H]Dopamine reuptake in rat brain tissue (P23977 whole entry): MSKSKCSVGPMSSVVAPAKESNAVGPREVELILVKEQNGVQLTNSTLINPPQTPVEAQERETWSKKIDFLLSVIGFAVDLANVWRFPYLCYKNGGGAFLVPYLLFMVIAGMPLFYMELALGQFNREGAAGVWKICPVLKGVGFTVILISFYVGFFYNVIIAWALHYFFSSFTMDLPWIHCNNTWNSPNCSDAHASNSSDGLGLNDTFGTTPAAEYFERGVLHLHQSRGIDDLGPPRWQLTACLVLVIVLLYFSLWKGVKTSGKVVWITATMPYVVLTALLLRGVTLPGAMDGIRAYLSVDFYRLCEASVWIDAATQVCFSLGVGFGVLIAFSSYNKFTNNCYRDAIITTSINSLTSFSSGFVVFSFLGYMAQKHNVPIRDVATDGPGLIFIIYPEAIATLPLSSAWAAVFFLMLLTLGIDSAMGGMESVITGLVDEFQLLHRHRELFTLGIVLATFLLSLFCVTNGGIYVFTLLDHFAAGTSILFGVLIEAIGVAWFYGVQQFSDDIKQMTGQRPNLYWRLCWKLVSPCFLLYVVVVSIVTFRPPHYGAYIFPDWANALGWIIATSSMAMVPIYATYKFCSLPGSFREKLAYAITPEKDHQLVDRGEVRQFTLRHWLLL

T1 sequence (Q63380 1-617): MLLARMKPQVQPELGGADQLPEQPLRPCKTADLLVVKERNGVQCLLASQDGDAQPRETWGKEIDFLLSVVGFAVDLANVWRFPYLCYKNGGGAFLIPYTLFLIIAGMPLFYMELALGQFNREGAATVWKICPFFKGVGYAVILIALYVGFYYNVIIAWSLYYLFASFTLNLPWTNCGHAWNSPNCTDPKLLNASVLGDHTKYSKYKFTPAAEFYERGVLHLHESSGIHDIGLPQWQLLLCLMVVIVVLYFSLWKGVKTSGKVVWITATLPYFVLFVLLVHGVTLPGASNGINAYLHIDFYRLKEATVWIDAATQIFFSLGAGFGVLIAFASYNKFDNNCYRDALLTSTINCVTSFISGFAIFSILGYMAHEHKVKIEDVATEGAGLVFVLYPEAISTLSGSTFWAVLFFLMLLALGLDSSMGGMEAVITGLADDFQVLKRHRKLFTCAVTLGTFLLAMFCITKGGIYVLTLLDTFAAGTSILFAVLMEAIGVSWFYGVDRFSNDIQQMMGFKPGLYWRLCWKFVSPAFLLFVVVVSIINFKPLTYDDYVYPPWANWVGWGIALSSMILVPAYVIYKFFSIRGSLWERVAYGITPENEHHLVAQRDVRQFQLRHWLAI

**Q.** With `CC(NC(C)(C)C)C(=O)c1cccc(Cl)c1` (centres unmarked) [Bupropion] as the compound, how does the Ki [1] read?
**A.** Its Ki is 2590 nM.

**Q.** What about the Ki [2] of the same compound?
**A.** The Ki was 409 nM.
